What was measured:
[1] = tested on: normal skin fibroblasts (HFF-1); test: Cytotoxicity MTT assay, normal skin fibroblasts; type: cell-based, human; conditions: Homo sapiens, HFF-1, 72 h, 72 h incubation, mean ± SD
Outline: (§1)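 Seeding density followed doubling time: 3000 cells per well for the cancer lines, 5000 for normal fibroblasts. Test substances, freshly diluted from 0.01 to 100 µM, were incubated with the cells for 72 h before MTT measurement of growth rate. IC50 values came from linear regression of dose–response curves.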

[2] = tested on: P-glycoprotein (human MDR1); test: MDCKII-MDR1 permeability assay; type: in vitro ADME, canine cells with over-expressed human MDR1 gene; conditions: dog, MDCK-MDR1; for Papp A→B at 60 min, 10 µM / Papp B→A at 60 min, 10 µM: 37 °C; for efflux ratio at 60 min, 10 µM: <2 no efflux, >2 active efflux
Outline: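 Bidirectional transport across MDCKII cells overexpressing human MDR1, compounds 10 µM (1% DMSO) for 60 min at 37 °C, with and without 2 µM elacridar. Monolayer integrity checked by Lucifer yellow; compound concentrations quantified by LC-MS/MS (MRM).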

[3] = tested on: pancreatic ductal adenocarcinoma (CFPAC-1) cells; test: Antiproliferative MTT assay, CFPAC-1; type: cell-based, human; conditions: for IC50: 72 h incubation, MTT, mean ± SD
Outline: as §1

[4] = tested on: colorectal carcinoma (HT-29) cells; test: Antiproliferative MTT assay, HT-29; type: cell-based, human; conditions: Homo sapiens, HT-29, 72 h, 72 h incubation, MTT; mean ± SD
Outline: as §1

[5] = Metabolic stability in mouse liver microsomes; type: in vitro ADME
Description: Mouse liver microsomes were obtained from Corning Life Sciences (Corning, NY, USA). DMSO, nicotinamide adenine dinucleotide phosphate (NADP), glucose-6-phosphate, glucose-6-phosphate dehydrogenase, magnesium chloride, propranolol, caffeine, diclofenac, and phosphate-buffered saline (PBS) were purchased from Sigma (St. Louis, MO, USA). Acetonitrile (ACN) and methanol (MeOH) were obtained from Merck (Darmstadt, Germany). Testosterone was purchased from Steraloids (Newport, RI, USA). Metabolic stability was assessed in mouse liver microsomes. Compounds (final concentration of 1 µM, 0.03% DMSO v/v) were incubated in duplicate in phosphate buffer (50 mM, pH 7.4) at 37 °C together with mouse liver microsomes in the absence and presence of the NADPH cofactor (0.5 mM nicotinamide adenine dinucleotide phosphate, 5 mM glucose-6-phosphate, 1.5 U/mL glucose-6-phosphate dehydrogenase, and 0.5 mM magnesium chloride). Incubation and sampling were performed on a Freedom EVO 200 (Tecan, Männedorf, CH, Switzerland) at […], 10, 20, 30, 45, and 60 min. The reaction was quenched using 3 volumes of a mixture of ACN/MeOH (2:1) containing internal standard (diclofenac), centrifuged, and the supernatants were analyzed using LC-MS/MS. The metabolic activity of the microsomes was verified via simultaneous analysis of several controls including testosterone, propranolol, and caffeine. The in vitro half-life (t1/2) was calculated using GraphPad Prism (v9.0 software) non-linear regression of % of parent compound remaining versus time. In vitro clearance, expressed as µL/min/mg, was estimated from the in vitro half-life (t1/2) and normalized for the protein amount in the incubation mixture, assuming 52.5 mg of protein per gram of liver and using constant values for mouse liver weight/body weight [87.5 g/kg] and mouse liver blood flow (LBF) [131 mL/min/kg].
All samples were quantified using tandem mass spectrometry coupled to liquid chromatography. Samples were analyzed on a Sciex API4000 Triple Quadrupole Mass Spectrometer (Sciex, Division of MDS Inc., Toronto, Canada) coupled to a Shimadzu Nexera X2 UHPLC frontend (Kyoto, Japan). Samples were injected onto a UHPLC column (HALO2 C18, 2.1 × 20 mm, 2 µm or Luna Omega 1.6 µm Polar C18 100A, 30 × 2.1 mm) and eluted with a gradient at 50 °C. The mobile phase was composed of acetonitrile/water mixture (9/1, with 0.1% formic acid) and 0.1% formic acid in deionized water. The flow rate was 0.7 mL/min under gradient conditions, leading to a total run time of 1.5–2 min. A positive ion mode with turbo spray, an ion source temperature of 550 °C, and a dwell time of 150 ms were utilized for mass spectrometric detection. Quantitation was performed using multiple reaction monitoring (MRM) at the specific transitions for each compound.

[6] = tested on: breast adenocarcinoma (MCF7) cells; test: Antiproliferative MTT assay, MCF-7; type: cell-based, human; conditions: for IC50: Homo sapiens, MCF7, 72 h incubation, MTT, mean ± SD
Outline: as §1

[7] = tested on: hepatocellular carcinoma (HepG2) cells; test: Antiproliferative MTT assay, HepG2; type: cell-based, human; conditions: for IC50: Homo sapiens, HepG2, 72 h, 72 h incubation, MTT, mean ± SD
Outline: as §1

Papp A→B at 60 min, 10 µM [2] [×10⁻⁶ cm/s]	Papp B→A at 60 min, 10 µM [2] [×10⁻⁶ cm/s]	efflux ratio at 60 min, 10 µM [2]	IC50 [3] [µM]	IC50 ([3]; Homo sapiens, CFPAC-1, 72 h) [µM]	IC50 [4] [µM]	Clearance Values (CL) ([5]; predicted in vivo hepatic clearance from mouse liver microsome t1/2, 1 µM compound) [%]	IC50 [6] [µM]	IC50 [7] [µM]	Papp at 60 min, 10 µM ([2]; permeability class) [×10⁻⁶ cm/s]	Clearance Class. ([5]; mouse liver microsomes)	SMILES	IC50 [1] [µM]	SI (CFPAC-1) ([3]; SI = [IC50 HFF]/[IC50 CFPAC-1])	SI (MCF-7) ([6]; SI = [IC50 HFF]/[IC50 MCF-7])	SI (HepG2) ([7]; SI = [IC50 HFF]/[IC50 HepG2])
7.6	66.4	8.8	1 ± 0.7	1 to 8	26 ± 1.2	54	0.5 ± 0.1	28 ± 0.5	–	–	OCC(c1ccc(C(F)(F)F)cc1)n1cc(Cn2ccc3c(Cl)ncnc32)nn1 (centres unmarked) [Compound 45a, 4-Chloro-7-((1-(2-hydroxy-1-(4-(trifluoromethyl)phenyl)ethyl)-1H-1,2,3-triazol-4-yl)methyl)-7H-pyrrolo[2,3-d]pyrimidine]	20 ± 4.7	20.0	40	–
≤ 2	36.9	23.3	–	21 ± 0.7	10 ± 3.2	–	46	4	≤ 2	LOW (<30% low)	OC(Cn1cc(Cn2cnc3c(Cl)nccc32)nn1)c1ccc(Br)cc1 (centres unmarked) [Compound 49b, 4-Chloro-1-((1-(2-hydroxy-2-(4-bromophenyl)ethyl)-1H-1,2,3-triazol-4-yl)methyl)-1H-imidazo[4,5-c]pyridine]	21 ± 5.8	–	–	5.3
